# Test results: patent publication US9598383B2, “Reactive oxygen species-based prodrugs” (The Regents of the University of California, priority 2013, dated 2017)
# How the values were obtained:
# [1] = Stability of model compounds in simulated physiological conditions, analytical HPLC; assay type: physicochemical; details: for stability: HEPES, RT, 24 h; for stability at physiological pH: 100 mM TRIS-HCl; for stability in the presence of glutathione: glutathione (9 equiv)
# [2] = H2O2-triggered deprotection of model compounds (conversion to acid), analytical HPLC; assay type: physicochemical; details: for percent conversion to acid: incubation at RT; for deprotection, conversion to the acid: excess of H2O2 (27 equiv) in buffer, after 4 h of incubation
# Procedure: To be effective prodrugs must have good water solubility and be rapidly converted to the active drug under the desired stimulus. These two aspects were evaluated first in model systems. […] An authentic HPLC trace of each was obtained and was then compared to a trace obtained after 1 h and 4 h of incubation. […] The stability of each compound was tested at physiological pH (100 mM TRIS-HCl, pH 7.2) as well as in the presence of glutathione (9 equiv).
# Injections consisted of 100 μL, of a 50 μM.
# [3] = Hydrolytic stability of prodrugs in buffer and with biologically relevant nucleophiles, analytical HPLC
# Procedure: Initially, an authentic HPLC trace was obtained of proIBU and proMMPi, and a second trace was obtained after incubating in buffer (100 mM TRIS-HCl, pH 7.4) for 24 h at 37° C. Each prodrug was incubated in the same conditions, with the addition of 20 equivalents of lysine, serine and glutathione, all in distinct trials.
# All compounds were initially dissolved in DMSO and further diluted with specified buffer. Injections consisted of 100 μl, of a 1 mM solution.
# COX-1 = experiment: COX inhibition, commercially available fluorescent assay (COX-1); assay type: biochemical; details: COX-1 isoform
# Procedure: The efficacy of the prodrug to inhibit its target was also evaluated. For proIBU a commercially available fluorescent assay was utilized. ProIBU was tested against both isoforms of the COX enzyme. […] Table 1 and FIG. 3.
Compound,stability ([1]; pH 7.2 + GSH (9 equiv)) [%],stability ([1]; pH 7.2) [%],stability ([1]; pH 8.0) [%],percent conversion to acid ([2]; 1 h) [%],percent conversion to acid ([2]; 4 h) [%],stability at physiological pH ([1]; pH 7.2),stability in the presence of glutathione [1],"deprotection, conversion to the acid [2]","hydrolytic stability ([3]; 100 mM TRIS-HCl, pH 7.4, 24 h at 37° C., 20 equivalents of glutathione) [%]","hydrolytic stability ([3]; 100 mM TRIS-HCl, pH 7.4, 24 h at 37° C., 20 equivalents of lysine) [%]","hydrolytic stability ([3]; 100 mM TRIS-HCl, pH 7.4, 24 h at 37° C., 20 equivalents of serine) [%]","hydrolytic stability ([3]; buffer (100 mM TRIS-HCl, pH 7.4), 24 h at 37° C.) [%]",inhibition of COX enzyme (COX-1)
"O=C1OCCN1C(=O)c1ccccc1 [Compound 1, 3-benzoyloxazolidin-2-one]",>99,>99,>99,14.6,25.6,,,,,,,,
"O=C1SCCN1C(=O)c1ccccc1 [Compound 2, 3-benzoylthiazolidin-2-one]",>99,88.6,82.5,13.6,37.8,,,,,,,,
"O=C(c1ccccc1)N1CCSC1=S [Compound 4, Phenyl(2-thioxothiazolidin-3-yl)methanone]",77.6,57.0,54.8,48.5,>99,poorer stability,poorer stability,full deprotection,,,,,
"CC(C)Cc1ccc(C(C)C(=O)N2CCSC2=O)cc1 (stereo not drawn) [proIBU, 3-(2-(4-isobutylphenyl)propanoyl)thiazolidin-2-one]",,,,,,,,,> 99,> 99,> 99,> 99,little to no inhibition

# Further lines, with some results ahead:
stability ([1]; pH 7.2 + GSH (9 equiv)) [%],stability ([1]; pH 7.2) [%],stability ([1]; pH 8.0) [%],percent conversion to acid ([2]; 1 h) [%],percent conversion to acid ([2]; 4 h) [%],stability at physiological pH ([1]; pH 7.2),stability in the presence of glutathione [1],"deprotection, conversion to the acid [2]",Compound,"hydrolytic stability ([3]; 100 mM TRIS-HCl, pH 7.4, 24 h at 37° C., 20 equivalents of glutathione) [%]","hydrolytic stability ([3]; 100 mM TRIS-HCl, pH 7.4, 24 h at 37° C., 20 equivalents of lysine) [%]","hydrolytic stability ([3]; 100 mM TRIS-HCl, pH 7.4, 24 h at 37° C., 20 equivalents of serine) [%]","hydrolytic stability ([3]; buffer (100 mM TRIS-HCl, pH 7.4), 24 h at 37° C.) [%]",inhibition of COX enzyme (COX-1)
59.5,95.5,41.2,44.7,>99,poorer stability,poorer stability,full deprotection,"O=C(c1ccccc1)N1CCOC1=S [Compound 3, Phenyl(2-thioxooxazolidin-3-yl)methanone]",,,,,
86.3,>99,94.5,<1,<1,,,,"O=C(Cc1ccccc1)N1CCOC1=O [Compound 5, 3-(2-phenylacetyl)oxazolidin-2-one]",,,,,
>99,>99,>99,23.3,67.8,,,,"O=C(Cc1ccccc1)N1CCSC1=O [Compound 6, 3-(2-phenylacetyl)thiazolidin-2-one]",,,,,
45.7,54.6,24.4,81.6,>99,poorer stability,poorer stability,full deprotection,"O=C(Cc1ccccc1)N1CCOC1=S [Compound 7, 2-phenyl-1-(2-thioxooxazolidin-3-yl)ethan-1-one]",,,,,
39.5,32.5,<1,87.6,>99,poorer stability,poorer stability,full deprotection,"O=C(Cc1ccccc1)N1CCSC1=S [Compound 8, 2-phenyl-1-(2-thioxothiazolidin-3-yl)ethan-1-one]",,,,,
